Patent US9585891B2 (MERCK PATENT GMBH, priority 2012, dated 2017)

Assays:
[1] = target: T1, Vanin-1 in SUIT-S2 cell line (Homo sapiens, UniProt O95497); assay: Vanin-1 cell-based mechanistic assay (fluorescence intensity, Pantothenate-AMC substrate); settings: 40000 cells per well, 2 hours incubation at 37° C., Pantothenate-AMC 30 μM, 30 min
T1 construct: endogenous in cells; host or cells: SUIT-S2 cell line (ATCC # CRL1596)
T1 sequence (O95497 22-491): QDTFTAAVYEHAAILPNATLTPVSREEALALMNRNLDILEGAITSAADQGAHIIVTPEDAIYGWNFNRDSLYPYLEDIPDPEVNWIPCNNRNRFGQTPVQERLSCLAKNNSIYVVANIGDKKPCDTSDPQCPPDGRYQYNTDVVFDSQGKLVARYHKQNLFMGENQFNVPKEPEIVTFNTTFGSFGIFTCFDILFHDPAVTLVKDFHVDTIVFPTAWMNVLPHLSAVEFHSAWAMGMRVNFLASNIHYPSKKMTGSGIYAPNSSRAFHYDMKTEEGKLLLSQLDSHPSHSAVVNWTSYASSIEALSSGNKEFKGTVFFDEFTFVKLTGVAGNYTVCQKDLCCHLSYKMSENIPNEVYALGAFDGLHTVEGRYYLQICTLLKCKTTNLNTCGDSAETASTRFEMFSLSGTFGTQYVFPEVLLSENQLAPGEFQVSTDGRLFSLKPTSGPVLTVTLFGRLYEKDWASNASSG
Method: Vanin-1 Cell-Based Mechanistic Assay:
The cellular activity of the examples is measured in 96-well format based on fluorescence intensity assay using SUIT-S2 cell line (ATCC # CRL1596).
Cells are cultured at 37° C. with 5% CO2 to 80-90% confluence and then washed once with phosphate-buffered saline (PBS). Adherent cells are detached with PBS-EDTA and once in suspension 40000 cells are dispensed in 90 μl of PBS in 96-well black plates with clear bottoms. Threefold serial dilutions of test compounds are made in DMSO and then solubilized in PBS, dilution range 1:30. Cells and serial diluted test compounds (final concentrations 10 μM to 4.6 nM) or controls (PBS/0.3% DMSO) are incubated for 2 hours at 37° C. with 5% CO2. The reaction is initiated by the addition of the fluorogenic substrate, Pantothenate-AMC, at a concentration of 30 μM. After 30 minutes of incubation at 30° C. with gentle agitation, fluorescence intensity is measured at λex=350 nm and λem=450 nm with a fluorescence reader (BMG PHERAstar reader or equivalent).

[2] = target: T2, Human recombinant Vanin-1 (VNN1) (Homo sapiens, UniProt O95497); assay: Vanin-1 enzymatic assay (fluorescence intensity, Pantothenate-AMC substrate); assay type: biochemical; settings: purified recombinant human Vanin-1 0.5 nM; 30 min preincubation at 30° C.; Pantothenate-AMC 30 μM, 60 min
T2 construct: purchased Sino Biological Inc. 11662-H08H
T2 sequence (O95497 22-491): T1 sequence (O95497 22-491)
Method: Human recombinant Vanin-1 (VNN1) was purchased from Sino Biological Inc. (Catalog Number: 11662-H08H).
Measurement of VNN1 inhibition is performed in 384-well format based on fluorescence intensity assay. Purified recombinant human Vanin-1 (0.5 nM) and threefold serial diluted compounds in 3% DMSO (range of concentrations from 30 μM to 1.524 nM) or controls (3.0% DMSO) are incubated for 30 minutes at 30° C. with gentle agitation in assay buffer containing 100 mM potassium Phosphate Buffer (KPi), pH 7.5, 0.001% Bovine Serum Albumin (BSA), 0.5 mM dithiothreitol (DTT) and 0.0025% Brij-35. The reaction is initiated by the addition of the fluorogenic substrate, Pantothenate-AMC, at a concentration of 30 μM. After 60 minutes of incubation at 30° C. with gentle agitation, fluorescence intensity is measured at λex=350 nm and λem=450 nm with a fluorescence reader (BMG PHERAstar reader or equivalent).

Row | SMILES | IC50 [1] [nM] | IC50 [2] [nM]
1 | CC(C)(CO)[C@@H](O)C(=O)NCCNC(=O)CCl [Example 57, (R)—N-[2-(2-Chloro-acetylamino)-ethyl]-2,4-dihydroxy-3,3-dimethyl-butyramide] | 1110 | 2540
2 | CC(C)(CO)[C@@H](O)C(=O)NCCN(CCc1ccccc1)C(=O)CCl [Example 59, (R)—N-{2-[(2-Chloro-acetyl)-phenethyl-amino]-ethyl}-2,4-dihydroxy-3,3-dimethyl-butyramide] | 1200 | 4040
3 | CC(C)(CO)[C@@H](O)C(=O)NCCN(Cc1ccccc1)C(=O)CCl [Example 60, (R)—N-{2-[Benzyl-(2-chloro-acetyl)-amino]-ethyl}-2,4-dihydroxy-3,3-dimethyl-butyramide] | 600 | 3570

Now those with a lower IC50 [1], led by results:

Row | IC50 [1] [nM] | IC50 [2] [nM] | SMILES
4 | 220 | 2480 | CC(C)(CO)[C@@H](O)C(=O)NCCN(CCCc1ccccc1)C(=O)CCl [Example 58, (R)—N-{2-[(2-Chloro-acetyl)-(3-phenyl-propyl)-amino]-ethyl}-2,4-dihydroxy-3,3-dimethyl-butyramide]
5 | 220 | 3280 | CC(C)(CO)[C@@H](O)C(=O)NCCN(CCOc1ccc(C#N)cc1)C(=O)CCl [Example 61, (R)—N-(2-{(2-Chloro-acetyl)-[2-(4-cyano-phenoxy)-ethyl]-amino}-ethyl)-2,4-dihydroxy-3,3-dimethyl-butyramide]
6 | 210 | 1360 | CC(C)(CO)[C@@H](O)C(=O)NCCN(CC1CCN(c2ccc(C#N)cc2)CC1)C(=O)CCl [Example 62, (R)—N-(2-{(2-Chloro-acetyl)-[1-(4-cyano-phenyl)-piperidin-4-ylmethyl]-amino}-ethyl)-2,4-dihydroxy-3,3-dimethyl-butyramide]
